Blank lines part the entries; values can stand above or below the compound they belong to.
Key:
[1] = physiological concentrations observed in patients; cited from earlier work
[2] = system: cancer organoid WCB024T; experiment: Regorafenib dose-response in 384-well LVM suspension culture, image analysis (mean organoid size); format: cell-based; conditions: Homo sapiens, 168 h, imaging, 7 days drug, 3% Matrigel, read-out: Mean ED50
Protocol: (§1) Organoids were digested with TrypLE Express enzyme at 37° C. for 15-20 min. Digestion was terminated in 1% BSA in DMEM/F12 and fragments were collected by centrifugation. Pellets were resuspended in culture medium, dissociated with a 26 G needle and filtered through a 40 μm cell strainer (Bio-Strategy, BDAA352340) to produce a single cell suspension. Live cells were counted using a hemocytometer and trypan blue staining. Single cells (3000 cells in 60 μl/well) were suspended in culture medium with 3% Matrigel, penicillin-streptomycin, normocin and 10 μM Y27632 and seeded in 384-well optical plates (Thermo Fisher Scientific, NUN242764) using a MANTIS® liquid handling robot (Formulatrix), and established for 3 days prior to drug addition. For plate uniformity studies, 1 μM bortezomib (Selleck, S1013) was used as the positive control, and 0.5% DMSO (Sigma, D2650) was used as a negative vehicle control. For the drug-dose response curves, regorafenib (Selleck, S1178) was used in a 9 point 4-fold titration series starting at 50 μM. All compound plates were prepared using a JANUS liquid handling robot (PerkinElmer) and stamped into 384-well plates using an integrated PinTool addition accessory (PerkinElmer).
(§2) PDTOs were imaged every 24 h for 7 days by bright-field microscopy as z-stacks on an automated Eclipse Ti2 Inverted Microscope System with an integrated tissue culture incubator (Nikon). 384-well images were captured using a 4× dry objective and Nikon Eclipse Ti2 software with a 25 μm Z-stack over a range of 500 μm. On day 7, 20μl CellTiter-Glo 3D reagent (Promega, G9683) was added using the MANTIS® liquid handling robot, plates were shaken at 1000 rpm for 30 mins at room temperature and luminescence measured using an EnVision plate reader (PerkinElmer).
(§3) For image analysis, flattening of Z-stack bright-field images, removal of background debris and selection of organoids were performed using ImageJ software (NIH Image). The projection of z-stack images onto a single in-focus image was carried out using the Extended Depth of Field (EDF) plugin in “easy mode”, with the parameter quality=′1′ and topology=1′. Processed images were exported as high-quality tiff files. Background debris removal was performed by with a series of steps including Subtract Background, Enhance Local Contrast (CLAHE), set AutoThreshold, set Black Background, and Convert to Mask. Organoid selection and feature extraction were achieved using sequential Analyze Particles, Invert LUT, Fill Holes, Watershed, Set Measurements and Analyze Particles steps. Features of selected organoids were exported as text files for determination of mean organoid size.
(§4) For comparison of uniformity of regorafenib dose response curves between imaging and CellTitreGlo 3D data, response curves were fitted using a 4-parameter log-logistic function to percent viability data.
(§5) Plate uniformity in the 384-well format was evaluated for maximum (Max) signals, minimum (Min) signals, and drug dose-dependent midpoint (Mid) signals (FIG. 15c-f). To determine Max signals, organoids were established for 3 days, treated with 0.5% DMSO (vehicle control) using a JANUS Automated Liquid Handling Workstation with a 384 pin tool, and incubated for 7 days. […] To evaluate dose-dependent Mid signals, regorafenib was titrated across each half of the assay plate in a 9-step, 4-fold dilution series starting from 50 μM, generating a total of 24 drug dose-response curves. Organoid viability was determined by both image analysis and CellTiter-Glo 3D luminescence measurements. Mean organoid size and luminescence signals were visualized as heatmaps for each plate and plotted by wells for each plate row from left to right or as drug dose-response curves.

[3] = system: cancer organoid WCB088T; experiment: as above; format: cell-based; conditions: Homo sapiens, 168 h, imaging, 7 days drug, 3% Matrigel, read-out: Mean ED50
Protocol: as §1, §2, §3, §4, §5

[4] = system: cancer organoid WCB123LU; experiment: as above; format: cell-based; conditions: Homo sapiens, 168 h, imaging, 7 days drug, 3% Matrigel, read-out: Mean ED50
Protocol: as §1, §2, §3, §4, §5

[5] = system: cancer organoid WCB024T; experiment: Regorafenib dose-response in 384-well LVM suspension culture, CellTitre-Glo 3D viability assay; format: cell-based; conditions: Homo sapiens, 168 h, 7 days drug, 3% Matrigel, read-out: Mean ED50
Protocol: as §1, §2, §4, §5

[6] = system: cancer organoid WCB088T; experiment: as above; format: cell-based; conditions: Homo sapiens, 168 h, 7 days drug, 3% Matrigel, read-out: Mean ED50
Protocol: as §1, §2, §4, §5

[7] = system: cancer organoid WCB123LU; experiment: as above; format: cell-based; conditions: Homo sapiens, 168 h, 7 days drug, 3% Matrigel, read-out: Mean ED50
Protocol: as §1, §2, §4, §5

[8] = system: mitochondrial function; conditions: Weng, Z. et al. (2015) Toxicology 327, 10-21; cited from earlier work
[9] = system: colorectal cancer organoids; experiment: Inhibition of colorectal cancer organoid growth by bortezomib (cell killing control); format: cell-based, human; conditions: at 1 μM; three cancer organoids; image analysis and CellTitreGlo 3D (FIG. 17)
Protocol: The bortezomib concentration of 1 um was selected as positive (killing) control, indicated by the dashed red line.
Organoids were digested with TrypLE Express enzyme at 37° C. for 15-20 min. Digestion was terminated in 1% BSA in DMEM/F12 and fragments were collected by centrifugation. Pellets were resuspended in culture medium, dissociated with a 26 G needle and filtered through a 40 μm cell strainer (Bio-Strategy, BDAA352340) to produce a single cell suspension. Live cells were counted using a hemocytometer and trypan blue staining. Single cells (3000 cells in 60 μl/well) were suspended in culture medium with 3% Matrigel, penicillin-streptomycin, normocin and 10 μM Y27632 and seeded in 384-well optical plates (Thermo Fisher Scientific, NUN242764) using a MANTIS® liquid handling robot (Formulatrix), and established for 3 days prior to drug addition. […]
Plate uniformity in the 384-well format was evaluated for maximum (Max) signals, minimum (Min) signals, and drug dose-dependent midpoint (Mid) signals (FIG. 15c-f). […] Organoid viability was determined by both image analysis and CellTiter-Glo 3D luminescence measurements. Mean organoid size and luminescence signals were visualized as heatmaps for each plate and plotted by wells for each plate row from left to right or as drug dose-response curves.

Compound: CCc1c2c(nc3ccc(O)cc13)-c1cc3c(c(=O)n1C2)COC(=O)[C@]3(O)CC [SN-38]
Cmax [1]: ~0.14 µM

Compound: O=C1[O][Pt]2([NH][C@@H]3CCCC[C@H]3[NH]2)[O]C1=O [oxaliplatin]
Cmax [1]: ~5 µM

EC50 ([2]; Mid (Left) plate half): 1540 nM
EC50 ([2]; Mid (Right) plate half): 2280 nM
EC50 ([3]; Mid (Left) plate half): 6090 nM
EC50 ([3]; Mid (Right) plate half): 10200 nM
EC50 ([4]; Mid (Left) plate half): 1230 nM
EC50 ([4]; Mid (Right) plate half): 1560 nM
EC50 ([5]; Mid (Left) plate half): 3690 nM
EC50 ([5]; Mid (Right) plate half): 5150 nM
EC50 ([6]; Mid (Left) plate half): 1980 nM
EC50 ([6]; Mid (Right) plate half): 3410 nM
EC50 ([7]; Mid (Left) plate half): 1010 nM
EC50 ([7]; Mid (Right) plate half): 1100 nM
Compound: CNC(=O)c1cc(Oc2ccc(NC(=O)Nc3ccc(Cl)c(C(F)(F)F)c3)c(F)c2)ccn1 [regorafenib]
Cmax [1]: ~7.3 µM
effect on mitochondrial function and cellular ATP levels [8]: impair mitochondrial function and decrease cellular ATP levels

Compound: CC(C)C[C@H](NC(=O)[C@H](Cc1ccccc1)NC(=O)c1cnccn1)B(O)O [bortezomib]
growth inhibition (cell killing control) [9]: complete growth inhibition

Compound: O=c1[nH]cc(F)c(=O)[nH]1 [5-FU, 5-fluorouracil]
Cmax [1]: ~7.5 µM

Compound: TAS-102
Cmax [1]: ~18.2 µM
